In ChEMBL document CHEMBL5120953, “Novel Macrocyclic 1,3,4-Oxadiazoles as CFTR Modulators for Treating Cystic Fibrosis” (ACS Med Chem Lett, 2022) one finds EC50 data, which are given here for 6 compounds.

The test in a line: Modulation of CFTR F508 deletion/MF mutant in HBE cells assessed as change in short circuit current incubated for 18 to 24 hrs in presence of forskolin and amiloride by voltage-clamp based chamber assay. Conditions: Homo sapiens. Type of test: cell-based.

Regarding `Nc1cc(C(F)(F)F)c2nc1-c1nnc(o1)[C@@](O)(C(F)(F)F)CCCCC[C@@H]1CCCN21`, the EC50 (usually the midpoint of the concentration-response curve) was less than 500 nM.
Take `Nc1cc(C(F)(F)F)c2nc1-c1nnc(o1)[C@@](O)(C(F)(F)F)CCCCCC(c1ccccn1)N2` (stereo partly specified): the concentration giving a half-maximal response (EC50) was less than 500 nM.
Consider `Nc1cc(C(F)(F)F)c2nc1-c1nnc(o1)[C@@](O)(C(F)(F)F)CCCCCC1(CCCCC1)N2`, for which the EC50 was less than 500 nM.
`Nc1cc(C(F)(F)F)c2nc1-c1nnc(o1)[C@@](O)(C(F)(F)F)CCCCCC1(CCC1)N2`: the concentration for a half-maximal effect (EC50) is less than 500 nM.
On to `Nc1cc(Br)c2nc1-c1nnc(o1)[C@@](O)(C(F)(F)F)CCCCC[C@@H]1CCCN21`, for which the EC50 is less than 500 nM.
As for `Nc1cc(S(=O)(=O)c2ccccc2)c2nc1-c1nnc(o1)[C@@](O)(C(F)(F)F)CCCCC[C@@H]1CCCN21`, the EC50 was less than 500 nM.
